Values quoted from earlier work, collected in patent publication US20110142757A1, “NOVEL COMPOUNDS AND THEIR USES IN DIAGNOSIS” (the University of Sydney, priority 2008, published 2011).

System: activated microglia
Conditions: quinolinic acid-injected rat striatum

Question: For `CCC(C)N(C)C(=O)c1cc2ccccc2c(-c2ccccc2Cl)n1` (stereo not shown) [PK11195], which “Microglial activation and neuronal death” value is on record?
Answer: reduces microglial activation and neuronal death
